The conditions of test [1]: in vitro; cited from earlier work.
The test system of another test is blood/brain barrier. The settings on record: including disruption of the blood/brain barrier; cited from earlier work.
Test [2] has as its system preeclampsia in animal models. The settings on record: cited from earlier work.
The test system of test [3] is rodent brain contusion model. As to the kind of experiment: Rodent brain contusion model. The class given is in vivo. The settings on record: given 1 hour after the insult. The source says:
MBG is elevated in other syndromes such as preeclampsia and traumatic brain injury. It has been shown that the administration of the antagonist of MBG, resibufagenin (RBG), is therapeutically effective. […] RBG antagonizes MBG activity and may be an effective treatment for hypertension, ARDS, traumatic brain injury, and preeclampsia. Certain embodiments are directed to treating a patient having elevated levels of MBG by administering an MBG antagonist or anti-MBG agent. In certain aspects the anti-MBG agent is resibufagenin (RBG).

The subject of test [4] is traumatic brain injured animals. As to the kind of experiment: Urinary MBG excretion in sham and traumatic brain injured animals. It counts as in vivo. The source says:
There are estimated to be between 300,000 to 350,000 veterans of the Middle East conflicts who currently suffer from PTSD related to wartime service. However, there are no proven methods to diagnose and stage the results of both physical and psychological trauma leading to PTSD, nor are there successful preventative or treatment methods. The interest in these military-associated problems has been accelerated by their potential application also to concussion in civilian life, especially to amateur, collegiate, and professional sports. Thus far, no solution has been enunciated nor has been proven (Meier and Ivory, Jul. 3, 2015, The New York Times). […] 114. […] It has been determined that a circulating cardiac glycoside (or “cardiotonic steroid”) called marinobufagenin (MBG) (FIG. 1), acts as both an indicator and initiator of the inflammatory process involved in TBI (FIG. 1) (Shapiro et al., The American Society for Clinical Pharmacology and Therapeutics, Dallas, Tex., Mar. 2-5, 2011. ASCPT Annual Meeting Program Booklet, p. 78; Puschett et al., Medical Research Archives 2015, ISSN 2375-1924; Oliver et al., J Experimental Neuroscience 2015, 9:67-72). […]

Test [5] relates to GFAP-labeled astrocytes in cortex after impact acceleration injury. As to the kind of experiment: GFAP immuno-fluorescence of brain after impact acceleration injury (IAI). The class given is in vivo. The settings on record: RBG at 1 hour after IAI. As for the experimental part: FIGS. 2A-2C. Micrographs of GFAP (glial fibrillary acidic protein) immuno-fluorescence. GFAP antibody labels the intermediate filaments of most astrocytes in the brain. In the sham animals (FIG. 2A), a normal distribution of GFAP-labeled astrocytes is seen. At 24 hours after an impact acceleration injury (IAI; FIG. 2B), a noticeable scar is observed (arrows) in layers 2 and 3 of the cortex. There is also a patchy loss of GFAP-labeled astrocytes throughout cortex and the vasculature (arrowheads) appears damaged. The loss of GFAP immunoreactivity and the appearance of astrocyte hypertrophy are indicative of a neuroinflammatory response to injury. […] The RBG treatment also reduces the decrease in GFAP immunoreactivity and a greater proportion of GFAP-labeled astrocytes have a normal, rather than hypertrophied appearance.

Turning to `C[C@]12CC[C@H](O)C[C@@]1(O)CC[C@@H]1[C@@H]2CC[C@]2(C)[C@@H](c3ccc(=O)oc3)C[C@H]3O[C@]132` [MBG, marinobufagenin], the Vasoconstrictor action entry in test [1] is reported as “acts in vitro as a vasoconstrictor”. The Vascular leak result in the test with blood/brain barrier is “cause vascular leak”.
Regarding `C[C@]12CC[C@H](O)C[C@H]1CC[C@@H]1[C@@H]2CC[C@]2(C)[C@@H](c3ccc(=O)oc3)C[C@H]3O[C@]132` [RBG, resibufogenin], the Preeclampsia entry in test [2] is “prevents preeclampsia”. For the same compound, in test [3], the Tissue injury result is on record as “amelioration of tissue injury”. For the same compound, in test [4] (TBI + RBG group, N = 10, sham 592.8 ± 79.3, TBI 1340.9 ± 308.5, P TBI vs. TBI + RBG = 0.02), the “Urinary MBG excretion” value was 475.3 ± 56.1. Also, the “Antagonism of the effects of MBG” value in test [4] (animal model of TBI (FIG. 2, Table 1)) was “antagonizes the effects of MBG”. Besides, the Glial scar entry in test [5] (IAI+RBG animals) is reported as “A glial scar was not observed”. The “Alterations after IAI (glial scar, loss of GFAP immunoreactivity, astrocyte hypertrophy)” value in test [5] (micrographs at 24 hours after IAI) is listed as “most of these alterations are ameliorated”.
